Measurements reported in the supplement of paper PMC10307832.

Key:
Assay in all cases: relative viability (nuclei count vs DMSO), 5 days (fraction); higher = more cells survive
[1] = compound: Nc1ccn([C@@H]2O[C@H](CO)[C@@H](O)C2(F)F)c(=O)n1 [Gemcitabine] + CC1(C)CCC(c2ccc(Cl)cc2)=C(CN2CCN(c3ccc(C(=O)NS(=O)(=O)c4ccc(N[C@H](CCN5CCOCC5)CSc5ccccc5)c(S(=O)(=O)C(F)(F)F)c4)cc3)CC2)C1 [Navitoclax] (partner 0.5 µM)
Procedure, shortened: (§1)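 Five library-drug doses in √10 steps were combined with a fixed anchor-drug dose, or a single drug was given alone, by pin tool to lung cancer cell lines in 1536-well plates the day after seeding. Nuclei were stained and counted after 5 days. Relative viability is the nuclei count in treated wells over that in vehicle wells, taken as the median of duplicate plates.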

[2] = compound: Nc1ccn([C@@H]2O[C@H](CO)[C@@H](O)C2(F)F)c(=O)n1 [Gemcitabine] + CC(=O)Nc1cccc(-n2c(=O)n(C3CC3)c(=O)c3c(Nc4ccc(I)cc4F)n(C)c(=O)c(C)c32)c1 [Trametinib] (partner 0.02 µM)
Procedure, shortened: as §1

[3] = compound: Nc1ccn([C@@H]2O[C@H](CO)[C@@H](O)C2(F)F)c(=O)n1 [Gemcitabine] + N=C(N)NC(=N)NCCc1ccccc1 [Phenformin] (partner 250 µM)
Procedure, shortened: as §1

[4] = compound: Nc1ccn([C@@H]2O[C@H](CO)[C@@H](O)C2(F)F)c(=O)n1 [Gemcitabine] + Nc1nc2[nH]cc(CCc3ccc(C(=O)N[C@@H](CCC(=O)O)C(=O)O)cc3)c2c(=O)[nH]1 [Pemetrexed] (partner 0.2 µM)
Procedure, shortened: as §1

Row | Cell Line | relative viability ([1]; first compound 0.001 µM) | relative viability ([1]; first compound 0.003162 µM) | relative viability ([1]; first compound 0.01 µM) | relative viability ([1]; first compound 0.03162 µM) | relative viability ([1]; first compound 0.1 µM) | relative viability ([2]; first compound 0.001 µM) | relative viability ([2]; first compound 0.003162 µM) | relative viability ([2]; first compound 0.01 µM) | relative viability ([2]; first compound 0.03162 µM) | relative viability ([2]; first compound 0.1 µM) | relative viability ([3]; first compound 0.001 µM) | relative viability ([3]; first compound 0.003162 µM) | relative viability ([3]; first compound 0.01 µM) | relative viability ([3]; first compound 0.03162 µM) | relative viability ([3]; first compound 0.1 µM) | relative viability ([4]; first compound 0.001 µM) | relative viability ([4]; first compound 0.003162 µM) | relative viability ([4]; first compound 0.01 µM) | relative viability ([4]; first compound 0.03162 µM) | relative viability ([4]; first compound 0.1 µM)
1 | NCI-H838 | 1.17 | 1.36 | 1.09 | 0.367 | 0.176 | 0.51 | 0.621 | 0.561 | 0.274 | 0.127 | 0.634 | 0.675 | 0.521 | 0.19 | 0.0985 | 0.251 | 0.262 | 0.24 | 0.241 | 0.149
2 | SW 1573 | 1.18 | 0.986 | 0.0907 | 0.0747 | 0.0361 | 0.46 | 0.405 | 0.117 | 0.0639 | 0.0615 | 0.353 | 0.202 | 0.104 | 0.0718 | 0.0652 | 0.876 | 0.732 | 0.0969 | 0.0574 | 0.0459
3 | PC-14 | 0.986 | 0.813 | 0.619 | 0.035 | 0.0244 | 0.885 | 0.279 | 0.037 | 0.0374 | 0.0267 | 0.558 | 0.113 | 0.0527 | 0.0312 | 0.0491 | 0.132 | 0.168 | 0.0563 | 0.0461 | 0.0413
4 | LK-2 | 0.822 | 0.732 | 0.444 | 0.222 | 0.203 | 0.926 | 0.65 | 0.731 | 0.206 | 0.167 | 0.834 | 0.43 | 0.313 | 0.142 | 0.142 | 0.298 | 0.321 | 0.238 | 0.14 | 0.114
5 | COR-L23 | 0.951 | 0.96 | 0.381 | 0.0768 | 0.0895 | 0.584 | 0.656 | 0.248 | 0.116 | 0.099 | 0.432 | 0.368 | 0.193 | 0.1 | 0.0829 | 0.198 | 0.19 | 0.19 | 0.14 | 0.129
6 | LCLC-103H | – | – | – | – | – | 0.61 | 0.695 | 0.709 | 0.712 | 0.56 | 0.321 | 0.318 | 0.279 | 0.198 | 0.193 | 0.423 | 0.435 | 0.44 | 0.407 | 0.392
7 | ABC-1 | – | – | – | – | – | – | – | – | – | – | 0.197 | – | 0.236 | 0.186 | 0.212 | – | – | – | – | –
8 | NCI-H358 | – | – | – | – | – | 0.11 | 0.107 | 0.0776 | 0.0818 | 0.0722 | 0.291 | 0.22 | 0.101 | 0.0745 | 0.0748 | 0.145 | 0.148 | 0.146 | 0.118 | 0.108
9 | NCI-H1563 | – | – | – | – | – | – | – | – | – | – | 0.66 | 0.605 | 0.53 | 0.494 | 0.497 | 0.748 | 0.852 | 0.833 | 0.407 | 0.414
10 | EBC-1 | 0.268 | 0.187 | 0.136 | 0.19 | 0.126 | – | – | – | – | – | – | – | – | – | – | – | – | – | – | –
11 | Calu-6 | 0.789 | 0.317 | 0.111 | 0.0922 | 0.0731 | – | – | – | – | – | – | – | – | – | – | – | – | – | – | –
